# The supplement of paper PMC3493320
# System: NCI-H295R
# Assay: IC50 (antiproliferative, ATP content)
# Conditions: 48 h
# How it was run: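 Cell viability of adrenocortical carcinoma cells was assessed as ATP by CellTiter-Glo luminescence. Cells at 1500 per well in 1536-well plates, in serum-free DMEM with ITS, received compounds by pin transfer at 8 final concentrations (0.6 nM–46 µM) after overnight culture and were then held 48 h at 37 °C, 5% CO2. IC50 was calculated by logistic fitting against vehicle and positive-control wells, compounds with no concentration response being recorded as above the top dose.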
row,SMILES,IC50
1,CCCCCCCCCC(=O)O[C@H]1CC[C@H]2[C@@H]3CCC4=CC(=O)CC[C@]4(C)[C@H]3CC[C@]12C,> 46 µM
2,CCCCCCCCOC(=O)c1ccccc1C(=O)OCCCCCCCC,> 46 µM
3,CCC(C)(S(=O)(=O)CC)S(=O)(=O)CC,> 46 µM
4,NCCC[C@H](N)CC(=O)N[C@H]1CNC(=O)[C@H]([C@H]2C[C@H](O)N=C(N)N2)NC(=O)/C(=C/NC(N)=O)NC(=O)[C@H](CO)NC(=O)[C@H](CO)NC1=O.O=S(=O)(O)O,> 46 µM
5,Nc1cc(-c2ccncc2)c[nH]c1=O,> 46 µM
6,CC(=C(CCO)SSC(CCO)=C(C)N(C=O)Cc1cnc(C)nc1N)N(C=O)Cc1cnc(C)nc1N,> 46 µM
7,COP(=O)(OC)OC=C(Cl)Cl,> 46 µM
8,N=C1NCCC(C2NC(=O)/C(=C/NC(N)=O)NC(=O)C(CNC(=O)CC(N)CCCN)NC(=O)C(CO)NC(=O)C(N)CNC2=O)N1.O=S(=O)(O)O (configuration not stated),> 46 µM
9,CC(C)(C)NCC(O)c1cc(Cl)c(N)c(Cl)c1 (configuration not stated),> 46 µM
10,CCCCCCOC(=O)c1cccnc1,> 46 µM
11,[O-][N+](=Nc1ccccc1)c1ccccc1,> 46 µM
12,COC(=O)C1=CCCN(C)C1,> 46 µM
13,O=C(NNCNNC(=O)c1ccncc1)c1ccncc1,> 46 µM
14,C[N+]1(C)[C@@H]2CC[C@H]1C[C@H](OC(=O)c1c[nH]c3ccccc13)C2.[I-],> 46 µM
15,O=C(O)CCn1c2c(c3ccccc31)C[C@H](NS(=O)(=O)c1ccc(F)cc1)CC2,> 46 µM
16,O=C(O)C1=CC2=C(C=CC=C2)C(CC3=C(O)C(C(O)=O)=CC4=C3C=CC=C4)=C1O.O=C([C@H](NC([C@@H](NC([C@@H](NC([C@@H](NC([C@@H](N[C@]([C@@H](N%11)CCC%11=O)=O)CC%10=CNC=N%10)=O)CC8=CNC9=CC=CC=C89)=O)CO)=O)CC7=CC=C(C=C7)O)=O)CC5=CNC6=CC=CC=C56)N[C@H](C(N[C@H](C(N%12CCC[C@@H]%12[C@@](NCC(N)=O)=O)=O)CCCNC(N)=N)=O)CC(C)C,> 46 µM
17,O=[C@](O)[C@@H]1[C@@H](CC(O)=O)[C@@H]([C@](C)=C)CN1,> 46 µM
18,COc1ccc2cc([C@H](C)CO)ccc2c1,> 46 µM
19,COc1ccccc1N1CCN(CCCNc2cc(=O)n(C)c(=O)n2C)CC1.Cl,> 46 µM

row,SMILES,IC50
1,Clc1ccc(Cl)cc1,> 46 µM
2,CC(CCc1ccccc1)NC(C)C(O)c1ccc(O)cc1 (configuration not stated),> 46 µM
3,C=CCN1C(=O)C(CC(C)C)NC1=S (configuration not stated),> 46 µM
4,CCN(C(C)=O)c1cccc(-c2ccnc3c(C#N)cnn23)c1,> 46 µM
5,CCCCc1ncc(/C=C(\Cc2cccs2)C(=O)O)n1Cc1ccc(C(=O)O)cc1.CS(=O)(=O)O,> 46 µM
6,CCN1C[C@]2(COC)[C@H](O)C[C@H](OC)[C@@]34[C@@H]5C[C@@]6(O)[C@H](OC(=O)c7ccccc7)[C@@H]5[C@@](OC(C)=O)([C@@H]([C@H](OC)[C@H]23)[C@H]14)[C@@H](O)[C@@H]6OC,> 46 µM
7,Cc1cc(C)c(NC(=O)CN(CC(=O)O)CC(=O)O)c(C)c1Br,> 46 µM
8,CN1CCCC(CN2c3ccccc3Sc3ccccc32)C1 (configuration not stated),> 46 µM
9,O.O=C(O)[C@@H]1[C@H]2C[C@H]3c4[nH]c5ccccc5c4CCN3C[C@@H]2CC[C@@H]1O,> 46 µM
10,CO,> 46 µM
11,CCOC(CN1CCN(CC(C)C(=O)c2ccccc2)CC1)c1ccccc1.Cl.Cl (configuration not stated),> 46 µM
12,O[C@@H]3C\C4=C\C[C@@H]2[C@H](CC[C@]1(C)C(=O)CC[C@H]12)[C@@]4(C)CC3,> 46 µM
13,NC(=S)NS(=O)(=O)c1ccc(N)cc1,> 46 µM
14,NCc1cccnc1,> 46 µM
15,Cc1ccc(S(=O)(=O)O)cc1.NC1CCN(c2nc3c(cc2F)c(=O)c(C(=O)O)cn3-c2ccc(F)cc2F)C1 (configuration not stated),> 46 µM
16,C[C@H]1CCC[C@H](O)CCCCCc2cc(O)cc(O)c2C(=O)O1,> 46 µM
17,CCN(CC)C(=O)c1ccc(O)c(OC)c1,> 46 µM
18,O=S(=O)([O-])O.[Na+],> 46 µM
19,Nc1nc(F)nc2c1ncn2[C@H]1O[C@@H](CO)[C@H](O)[C@H]1O,> 46 µM

# Other lines, results leading:
row,IC50,SMILES
1,> 46 µM,Cc1cccc(C)c1NC(=O)CN1CCCC1
2,> 46 µM,O=C([O-])C[C@H](O)C[C@H](O)/C=C/c1c(C2CC2)nc2ccccc2c1-c1ccc(F)cc1.O=C([O-])C[C@H](O)C[C@H](O)/C=C/c1c(C2CC2)nc2ccccc2c1-c1ccc(F)cc1.[Ca+2]
3,> 46 µM,O=C1/C(=C2\Nc3ccccc3C2=O)Nc2ccccc21
4,> 46 µM,O=c1[nH]c(=O)n([C@H]2C[C@H](O)[C@@H](CO)O2)cc1I
5,> 46 µM,C[C@@H]1C[C@H]2[C@@H]3CCC4=CC(=O)C=C[C@]4(C)[C@@]3(F)C(O)C[C@]2(C)[C@H]1C(=O)CO (some centres not stated)
6,> 46 µM,O=C3N1/C(=C(\CS[C@@H]1[C@@H]3NC(=O)Cc2cccs2)C[n+]4ccccc4)C([O-])=O
7,> 46 µM,NCCCCCC(=O)O
8,> 46 µM,c1cnc(N2CCN(Cc3ccc4c(c3)OCO4)CC2)nc1
9,> 46 µM,CCN(CC)CCC(=O)N1c2ccccc2Sc2ccc(Cl)cc21
10,> 46 µM,C[C@H]1O[C@H]1P(=O)([O-])[O-].[Ca+2]
11,> 46 µM,Cc1cn([C@H]2C[C@H](N=[N+]=[N-])[C@@H](CO)O2)c(=O)[nH]c1=O
12,> 46 µM,CCCCNc1cc(C(=O)O)cc(S(N)(=O)=O)c1Oc1ccccc1
13,> 46 µM,CN1CCN(C(=O)C2CCCCC2)CC1
14,> 46 µM,CC(=O)OCC(COC(C)=O)OC(C)=O
15,> 46 µM,CCOC(C)=O
16,> 46 µM,N[C@H](CO)C(=O)O
17,> 46 µM,COc1cc(/C=C/C(=O)CC(=O)/C=C/c2ccc(O)c(OC)c2)ccc1O
18,> 46 µM,c1ccc(-c2nc[nH]c2-c2ccccc2)cc1
19,> 46 µM,OCCOCCOCCO
20,> 46 µM,CNC(=O)C(N)CSC(C)C1=C(C)c2cc3[n-]c(cc4nc(cc5[n-]c(cc1n2)c(C)c5CCC(=O)O)C(CCC(=O)O)=C4C)c(C)c3C(C)SCC(N)C(=O)NC.[Fe+2] (configuration not stated)
21,> 46 µM,O=C(O)c1cc(-c2ccc(F)cc2F)ccc1O
22,> 46 µM,O[C@@H]([C@H](O)[C@H](O)CBr)[C@H](O)CBr
23,> 46 µM,C=CCSCC1Nc2cc(Cl)c(S(N)(=O)=O)cc2S(=O)(=O)N1 (configuration not stated)
24,> 46 µM,O=C1c2ccccc2C(=O)C1c1ccc(Br)cc1
25,> 46 µM,Oc1cccc(O)c1
26,> 46 µM,C[C@](N)(Cc1ccc(O)c(O)c1)C(=O)O.C[C@](N)(Cc1ccc(O)c(O)c1)C(=O)O.O.O.O
27,> 46 µM,NCCCC[C@H](N)C(=O)O

row,IC50,SMILES
1,> 46 µM,F[C@]1([C@](C)2C=C3)[C@@H](O)C[C@@]([C@]([C@@](CO)=O)(O)[C@H]4C)(C)[C@](C4)([H])[C@@]([H])1CCC2=CC3=O
2,> 46 µM,CCc1cccc2c3c([nH]c12)C(CC)(CC(=O)O)OCC3 (configuration not stated)
3,> 46 µM,CCC[C@@H]1C[C@@H](C(=O)N[C@@H]([C@H]2O[C@H](SC)[C@H](O)[C@@H](O)[C@H]2O)[C@H](C)Cl)N(C)C1.Cl
4,> 46 µM,O=c1[nH]cnc2nc[nH]c12
5,> 46 µM,Cc1cc(NS(=O)(=O)c2ccc(N)cc2)no1
6,> 46 µM,CN(C)CC/C=C1\c2ccccc2COc2ccccc21.Cl
7,> 46 µM,CCCCC
8,> 46 µM,CC(=O)CCC(=O)[O-].CC(=O)CCC(=O)[O-].O.O.[Ca+2]
9,> 46 µM,CCOC(=O)C=C(C)C=CC=C(C)C=Cc1c(C)cc(OC)c(C)c1C
10,> 46 µM,NS(=O)(=O)c1cc2c(cc1C(F)(F)F)NCNS2(=O)=O
11,> 46 µM,CC(O)CCCCn1c(=O)c2c(ncn2C)n(C)c1=O (configuration not stated)
12,> 46 µM,Cc1cccc(C)c1OCC(C)N.Cl (configuration not stated)
13,> 46 µM,CC(=O)Oc1cccc2c1C(=O)c1c(OC(C)=O)cc(C(=O)O)cc1C2=O
14,> 46 µM,CCN(CC)CCNC(=O)COc1ccc(Cl)cc1
15,> 46 µM,CN1CCC[C@@H]1c1cccnc1
16,> 46 µM,Cc1ccc(S(=O)(=O)[O-])cc1C.[Na+]
17,> 46 µM,O=C(SC[C@@H](C(N(C3)[C@@H](C[C@@H]3SC2=CC=CC=C2)[C@@](O)=O)=O)C)C1=CC=CC=C1
18,> 46 µM,COc1cc2ncnc(Nc3ccc(F)c(Cl)c3)c2cc1OCCCN1CCOCC1
19,> 46 µM,Cc1cc(-c2ccccc2)nnc1NCCN1CCOCC1.Cl.Cl
20,> 46 µM,CC1(C)S[C@@H]2[C@H](NC(=O)C(N)c3ccccc3)C(=O)N2[C@H]1C(=O)OC1OC(=O)c2ccccc21.Cl (some centres not stated)
21,> 46 µM,CC(=O)OCC(=O)[C@@]1(OC(C)=O)[C@@H](C)C[C@H]2[C@@H]3C[C@H](F)C4=CC(=O)C=C[C@]4(C)[C@@]3(F)[C@@H](O)C[C@@]21C
22,> 46 µM,COc1ccc(C(=O)CC(=O)c2ccc(C(C)(C)C)cc2)cc1
23,> 46 µM,O=C1Cc2cc(CCN3CCN(c4nsc5ccccc45)CC3)c(Cl)cc2N1
24,> 46 µM,O=C(O)CN(CC(=O)O)Cc1cc2c(cc1O)Oc1ccc(CN(CC(=O)O)CC(=O)O)c(O)c1C21OC(=O)c2ccccc21 (configuration not stated)
25,> 46 µM,C/C1=C2N=C(/C=C3N=C(/C(C)=C4\[N]([Co+][CH2][C@H]5O[C@@H](n6cnc7c(N)ncnc76)[C@H](O)[C@@H]5O)C(C(CC(N)=O)C4(C)CCC(=O)NCC(C)OP(=O)([O-])O[C@H]4[C@@H](O)[C@@H](n5cnc6cc(C)c(C)cc65)O[C@@H]4CO)C4(C)N=C1C(CCC(N)=O)C4(C)CC(N)=O)C(CCC(N)=O)C\3(C)C)C(CCC(N)=O)C/2(C)CC(N)=O (some centres not stated)
26,> 46 µM,C=C1c2c(Cl)ccc(O)c2C(=O)C2=C(O)[C@]3(O)C(=O)C(C(N)=O)=C(O)[C@@H](N(C)C)[C@@H]3[C@@H](O)[C@H]12.O=C(O)c1cc(S(=O)(=O)O)ccc1O
27,> 46 µM,O=[C@](O)[C@@]3(C)[C@@]1([H])[C@@](CCC3)(C)[C@]2([H])C(C=[C@@]([C@@H](C)C)CC2)=CC1
